# Patent US20130184222A1, “[…] ACTIVE COMPOSITIONS AND THEIR METHODS OF USE” (AGIOS PHARMACEUTICALS, INC, priority 2010, published 2013)
# Molecular target: IDH1 R132H (Homo sapiens, UniProt O75874, R132H)
# Experiment: In vitro assay for IDH1 R132H inhibitors (NADPH/aKG, resazurin detection)
# Assay type: biochemical
# Conditions: Table 4A; 0.2 μg/ml IDH1 R132H, 50 minutes at room temperature; read-out: IC50 (uM), IDH1 R132H Inhibition
# Description: Assays were conducted in a volume of 76 μl assay buffer (150 mM NaCl, 10 mM MgCl2, 20 mM Tris pH 7.5, 0.03% bovine serum albumin) as follows in a standard 384-well plate: To 25 ul of substrate mix (8 uM NADPH, 2 mM aKG), 1 μl of test compound was added in DMSO. The plate was centrifuged briefly, and then 25 μl of enzyme mix was added (0.2 μg/ml IDH1 R132H) followed by a brief centrifugation and shake at 100 RPM. The reaction was incubated for 50 minutes at room temperature, then 25 μl of detection mix (30 μM resazurin, […]) was added and the mixture further incubated for 5 minutes at room temperature. The conversion of resazurin to resorufin was detected by fluorescent spectroscopy at Ex544 Em590 c/o 590.
# The compounds of Formula I set forth in Table 1 and the compounds set forth in Table 2 were tested in this assay and the results set forth below in Table 4A and 4B.
# IDH1 R132H, sequence (O75874 whole entry R132H): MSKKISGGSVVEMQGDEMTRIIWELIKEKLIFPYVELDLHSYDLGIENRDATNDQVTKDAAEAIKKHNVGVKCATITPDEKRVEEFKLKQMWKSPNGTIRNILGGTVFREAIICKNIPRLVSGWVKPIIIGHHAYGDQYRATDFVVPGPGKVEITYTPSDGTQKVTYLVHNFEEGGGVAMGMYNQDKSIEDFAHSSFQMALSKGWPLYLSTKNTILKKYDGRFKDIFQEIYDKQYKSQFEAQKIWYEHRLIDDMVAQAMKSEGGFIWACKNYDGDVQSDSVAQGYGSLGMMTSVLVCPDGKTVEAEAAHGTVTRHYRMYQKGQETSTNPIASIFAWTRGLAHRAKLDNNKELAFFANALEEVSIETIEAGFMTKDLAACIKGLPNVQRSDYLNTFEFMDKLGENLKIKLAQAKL
row,IC50 [µM],Compound
1,1 to 10,O=C(Cc1cccs1)N(c1cccc(F)c1)C1(C(=O)NC2CCCC2)CCCCCC1 [Compound 74]
2,0.1 to 1,O=C(NC1CCCCC1)C(c1ccc(O)cc1)N(C(=O)Cc1cccs1)c1cccc(F)c1 (centres unmarked) [Compound 92]
3,≥ 100,O=C(NC1CCCCC1)C(c1ccc(-c2ccccc2)cc1)N(C(=O)Cc1cccs1)c1cccc(F)c1 (centres unmarked) [Compound 66]
4,≥ 100,O=C(NC1CCCCC1)C(c1ccc(C(F)(F)F)cc1)N(C(=O)Cc1cccs1)c1cccc(F)c1 (centres unmarked) [Compound 84]
5,0.1 to 1,Cc1ccccc1C(C(=O)NC1CCCCC1)N(C(=O)Cc1cccs1)c1ccccc1Br (centres unmarked) [Compound 98]
6,≥ 100,CC(=O)c1cccc(C(C(=O)NC2CCCCC2)N(C(=O)Cc2cccs2)c2cccc(F)c2)c1 (centres unmarked) [Compound 95]
7,≥ 100,O=C(NC1CCCCC1)C(c1ccc(Br)cc1)N(C(=O)Cc1cccs1)c1cccc(F)c1 (centres unmarked) [Compound 68]

# More lines, now with the values behind:
row,Compound,IC50 [µM]
1,CC(C)(C)NC(=O)C(c1ccccc1)N(C(=O)Cc1cccs1)c1ccccc1 (centres unmarked) [Compound 11],1 to 10
2,Cc1ccccc1N(C(=O)Cc1cccs1)C(C(=O)NC(C)(C)C)c1cccc(F)c1 (centres unmarked) [Compound 14],10 to 100
3,O=C(NC1CCCCC1)C(c1ccccc1Cl)N(C(=O)c1ccccn1)c1cccc(F)c1 (centres unmarked) [Compound 56],0.1 to 1
4,O=C(NC1CCCCC1)C(C1CCCC1)N(C(=O)Cc1cccs1)c1cccc(F)c1 (centres unmarked) [Compound 61],1 to 10
5,O=C(NC1CCCCC1)C(c1ccccc1[N+](=O)[O-])N(C(=O)Cc1cccs1)c1cccc(F)c1 (centres unmarked) [Compound 62],0.1 to 1
6,Cc1ccccc1C(C(=O)NC1CCCC1)N(C(=O)Cc1cccs1)c1cccc(F)c1 (centres unmarked) [Compound 8],≤ 0.1
7,O=C(NC1CCCC1)C(c1cccc([N+](=O)[O-])c1)N(C(=O)Cc1cccs1)c1cccc(F)c1 (centres unmarked) [Compound 20],≥ 100
8,O=C(NC1CCCC1)C(c1ccccc1)N(C(=O)Cc1cccs1)c1cccc(F)c1 (centres unmarked) [Compound 45],0.1 to 1
9,O=C(NC1CCCCC1)C(c1ccccc1Cl)N(C(=O)c1ccccn1)c1ccccc1 (centres unmarked) [Compound 4],0.1 to 1
10,O=C(NC1CCCCC1)C(c1ccccc1F)N(Cc1cccs1)C(=O)c1ccccn1 (centres unmarked) [Compound 37],10 to 100
11,O=C(NC1CCCC1)C(c1ccccc1)N(C(=O)Cc1cccs1)c1ccccc1F (centres unmarked) [Compound 48],0.1 to 1
12,COc1ccccc1C(C(=O)NC1CCCC1)N(C(=O)Cc1cccs1)c1cccc(F)c1 (centres unmarked) [Compound 26],0.1 to 1
13,O=C(Cc1cccs1)N(c1cccc(F)c1)C1(C(=O)NC2CCCC2)CCC1 [Compound 22],≥ 100
14,O=C(NC1CCCCC1)C(c1ccccc1F)N(C(=O)Cc1cccs1)c1cccc(F)c1 (centres unmarked) [Compound 34],≤ 0.1
15,O=C(NC1CCCCC1)C(c1ccccc1F)N(Cc1cccs1)C(=O)Cc1cccs1 (centres unmarked) [Compound 38],1 to 10
16,O=C(NC1CCCC1)C(c1ccccc1Cl)N(C(=O)Cc1cccs1)c1cccc(F)c1 (centres unmarked) [Compound 44],≤ 0.1
17,Cc1ccsc1C(C(=O)NC1CCCCC1)N(C(=O)Cc1cccs1)c1cccc(F)c1 (centres unmarked) [Compound 51],0.1 to 1

# Same assay, conditions: Table 4B; 0.2 μg/ml IDH1 R132H, 50 minutes at room temperature; read-out: IC50, IDH1 R132H Inhibition
row,IC50 [µM],Compound
1,0.1 to 1,Cc1ccccc1C(C(=O)NC1CCCCC1)N(C(=O)CN1CCCCC1)c1cccc(F)c1 (centres unmarked) [Compound 141]
2,0.1 to 1,Cc1ccccc1C(C(=O)NC1CCCCC1)N(C(=O)Cc1cccs1)c1ccc(Cl)cc1 (centres unmarked) [Compound 148]
3,0.1 to 1,Cc1ccccc1C(C(=O)Nc1ccccc1Br)N(C(=O)Cc1cccs1)c1cccc(F)c1 (centres unmarked) [Compound 164]
4,0.1 to 1,Cc1ccccc1C(C(=O)NC1CCCCC1)N(C(=O)CNCc1ccccc1)c1cccc(F)c1 (centres unmarked) [Compound 152]
5,0.1 to 1,CC(=O)N1CCC[C@@H]1C(=O)N(c1cccc(F)c1)[C@H](C(=O)NC1CCCCC1)c1ccccc1C [Compound 371]
6,0.1 to 1,Cc1ccccc1C(C(=O)NC1CCCCC1)N(C(=O)CNC(=O)OC(C)(C)C)c1ccccc1F (centres unmarked) [Compound 352]
7,0.1 to 1,Cc1ccccc1C(C(=O)NC1CCCCC1)N(C(=O)Cc1cccs1)C1CCCCC1 (centres unmarked) [Compound 113]
8,0.1 to 1,Cc1ccccc1[C@@H](C(=O)NC1CCCCC1)N(C(=O)[C@H]1CCCCN1C(=O)N(C)C)c1cccc(F)c1 [Compound 365]
